Experiment [1] deals with T1, recombinant human Wee1A kinase (Homo sapiens, UniProt P30291).
T1 construct: full length Wee1 kinase was expressed by baculovirus in insect cells; purchased Invitrogen PV3817; host or cells: insect cells (baculovirus)
In words: Wee1A kinase binding assay (LanthaScreen Eu time-resolved FRET). The procedure, abridged: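 Full-length, baculovirus-expressed GST-tagged Wee1A (5 nM) was mixed with 2 nM Eu-anti-GST antibody, 30 nM kinase tracer 178 and compound (1% DMSO). Buffer was 50 mM HEPES pH 7.5, 10 mM MgCl2, 1 mM EGTA, 0.01% Brij-35, incubated 60 min at room temperature. TR-FRET 665/615 nm emission ratios from duplicates were curve-fitted.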
(In general: Time-resolved FRET reads energy transfer from a long-lived donor to a nearby acceptor.)

The target in experiment [2] is T2, Wee1A kinase (CDK1 Tyr15 phosphorylation in ACHN renal cell carcinoma cells) (Homo sapiens, UniProt P30291).
T2 construct: pCDK1 Tyr15 immunofluorescence read-out
T2 sequence (P30291 whole entry): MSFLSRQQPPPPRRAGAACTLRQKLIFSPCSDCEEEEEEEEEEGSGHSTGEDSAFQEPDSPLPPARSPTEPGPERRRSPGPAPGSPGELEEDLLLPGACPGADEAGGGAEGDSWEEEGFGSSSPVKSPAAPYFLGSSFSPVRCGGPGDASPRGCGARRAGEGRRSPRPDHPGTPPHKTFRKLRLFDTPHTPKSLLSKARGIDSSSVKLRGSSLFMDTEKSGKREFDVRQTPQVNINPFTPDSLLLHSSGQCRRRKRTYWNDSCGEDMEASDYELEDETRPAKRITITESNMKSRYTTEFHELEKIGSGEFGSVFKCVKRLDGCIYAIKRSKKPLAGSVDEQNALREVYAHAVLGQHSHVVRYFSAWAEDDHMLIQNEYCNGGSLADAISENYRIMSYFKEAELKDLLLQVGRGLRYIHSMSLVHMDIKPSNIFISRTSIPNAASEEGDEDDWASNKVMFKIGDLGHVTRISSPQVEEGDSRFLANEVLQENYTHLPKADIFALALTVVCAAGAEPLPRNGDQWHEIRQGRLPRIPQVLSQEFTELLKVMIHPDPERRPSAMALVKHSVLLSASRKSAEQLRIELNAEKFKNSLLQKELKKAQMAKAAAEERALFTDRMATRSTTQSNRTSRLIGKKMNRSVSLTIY
In words: High-content imaging of pCdk1 Y15, Wee1A kinase target engagement in ACHN cells. It counts as cell-based. The procedure, abridged: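 EC50 values come from the per-well fraction of cells with nuclear pCdk1 Y15 staining, normalised to DMSO control, by automated immunofluorescence imaging. Cells were ACHN renal carcinoma, treated 4 h with compound at 7–5,000 nM or 0.3–200 nM.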

In experiment [3] the target is T3, Myt1 kinase (recombinant PMYT-1) (Homo sapiens, UniProt Q99640).
T3 construct: full length PMYT-1 was expressed by baculovirus in insect cells; purchased Invitrogen A30984; host or cells: insect cells (baculovirus)
T3 sequence (Q99640 1-499): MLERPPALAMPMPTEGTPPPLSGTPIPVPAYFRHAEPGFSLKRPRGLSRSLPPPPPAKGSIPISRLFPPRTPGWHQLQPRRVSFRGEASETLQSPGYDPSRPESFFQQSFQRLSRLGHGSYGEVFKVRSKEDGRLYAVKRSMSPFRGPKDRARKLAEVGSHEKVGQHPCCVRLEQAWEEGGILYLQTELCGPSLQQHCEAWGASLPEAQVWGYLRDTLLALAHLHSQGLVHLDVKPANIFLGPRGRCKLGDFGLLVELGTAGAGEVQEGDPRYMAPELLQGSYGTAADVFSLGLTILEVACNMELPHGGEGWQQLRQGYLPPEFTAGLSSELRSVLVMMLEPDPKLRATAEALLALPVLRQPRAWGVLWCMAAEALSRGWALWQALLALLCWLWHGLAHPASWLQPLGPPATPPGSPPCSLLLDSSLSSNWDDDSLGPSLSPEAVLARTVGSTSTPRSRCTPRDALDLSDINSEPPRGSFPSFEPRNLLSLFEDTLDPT
Put plainly: Myt1 kinase binding assay (LanthaScreen Eu Kinase Binding Assay). The gist of the method:
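Compound binding to Myt1 kinase was assessed using the LanthaScreen Eu Kinase Binding Assay. This europium-based binding format was applied to quantify how strongly each compound bound to the Myt1 enzyme, and the binding affinity was reported for each compound as an IC50 value.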

Setting [4] is: 30 nM tracer 178, 5 nM Wee1A kinase, 2 nM Eu-labeled antibody, 60 minutes at room temperature, read-out: Wee1A kinase Binding IC50.
Setting [5] is: 4 h treatment, nuclear positivity for pCdk1 Y15 vs DMSO control, read-out: CDK1 Tyr15 Phosphorylation EC50.
Setting [6] is: 3 nM tracer 178, 2.5 nM PMYT-1, 1 nM Eu-labeled antibody, read-out: Myt1 kinase Binding IC50.
The mark [7] stands for this setting: read-out: CDK1 Tyr15 Phosphorylation EC50, 4 h treatment, nuclear positivity for pCdk1 Y15 vs DMSO control.
The mark [8] stands for this setting: Myt1 kinase Binding IC50, 3 nM tracer 178, 2.5 nM PMYT-1, 1 nM Eu-labeled antibody.

Among the data in patent publication US20260364080A1, “PYRAZOLO-PYRIMIDINONE COMPOUNDS FOR USE IN METHODS OF INHIBITING WEE1 A KINASE” (Acrivon Therapeutics, Inc., priority 2023, published 2026) are IC50 and EC50 values, retold here.

The structures appear in SMILES notation. Read-outs that look alike come from different tables or passages of the source.

T1 sequence (P30291 whole entry): as the sequence (P30291 whole entry) above

In general, IC50 refers to the midpoint of a concentration-inhibition curve. For orientation: EC50 means the midpoint of the concentration-response curve. Turning to `C=CCn1c(=O)c2cnc(Nc3ccc4c(c3)c(C)nn4C)nc2n1-c1cccc(OC2CCNCC2)n1` [Compound 347, 2-allyl-6-((1,3-dimethyl-1H-indazol-5-yl)amino)-1-(6-(piperidin-4-yloxy)pyridin-2-yl)-1,2-dihydro-3H-pyrazolo[3,4-d]pyrimidin-3-one], the figures for the IC50 in experiment [1] (setting [4]) and in experiment [3] (setting [6]) were less than 10 nM and 20 to 100 nM, respectively. Besides, in experiment [2] (setting [5]), the EC50 is less than 100 nM.
`C=CCn1c(=O)c2cnc(Nc3ccc(Cl)cc3)nc2n1-c1cccc(N(CCC)C2CCN(C)CC2)n1` [Compound 149, 6-[(4-chlorophenyl)amino]-1-{6-[(1-methylpiperidin-4-yl)(propyl)amino]pyridin-2-yl}-2-(prop-2-en-1-yl)-1H,2H,3H-pyrazolo[3,4-d]pyrimidin-3-one]: the results for the IC50 in experiment [1] and in experiment [3] (setting [8]) were less than 10 nM and more than 500 nM, respectively. In experiment [2] (setting [7]), the concentration giving a half-maximal response (EC50) fell in the range of 500 to 1000 nM.
Take `C=CCn1c(=O)c2cnc(Nc3ccc(Cl)c(C)c3)nc2n1-c1cccc(NC2CCNCC2)n1` [Compound 133, 2-allyl-6-(4-chloro-3-toluidino)-1-[6-(4-piperidylamino)-2-pyridyl]-1,2-dihydro-3H-1,2,5,7-tetraazainden-3-one]: the IC50 was less than 10 nM in experiment [1] (setting [4]) and 100 to 500 nM in experiment [3] (setting [6]). Further, in experiment [2] (setting [5]), the EC50 was in the range of 100 to 500 nM.
For the compound `C=CCn1c(=O)c2cnc(Nc3ccc(Br)cc3)nc2n1-c1cccc(NC2CCNCC2)n1` [Compound 143, 6-[(4-bromophenyl)amino]-1-{6-[(piperidin-4-yl)amino]pyridin-2-yl}-2-(prop-2-en-1-yl)-1H,2H,3H-pyrazolo[3,4-d]pyrimidin-3-one], the IC50 in experiment [1] (setting [4]) was less than 10 nM; in experiment [3] (setting [6]) it was 20 to 100 nM. For the same compound, in experiment [2] (setting [5]), the EC50 lay within 500 to 1000 nM.
For `CCn1c(=O)c2cnc(Nc3ccccc3)nc2n1-c1cccc(OC2CCN(C)CC2)n1` [Compound 117, 6-anilino-2-ethyl-1-[6-(1-methyl-4-piperidyloxy)-2-pyridyl]-1,2-dihydro-3H-1,2,5,7-tetraazainden-3-one] the same measures were less than 10 nM, 20 to 100 nM and less than 100 nM.
For `C=CCn1c(=O)c2cnc(Nc3ccc4c(c3)nnn4C(C)C)nc2n1-c1cccc(OC2CCNCC2)n1` [Compound 408, 2-allyl-6-((1-isopropyl-1H-benzo[d][1,2,3]triazol-5-yl)amino)-1-(6-(piperidin-4-yloxy)pyridin-2-yl)-1,2-dihydro-3H-pyrazolo[3,4-d]pyrimidin-3-one] the same measures were less than 10 nM, less than 20 nM and less than 100 nM.
Take `Cc1cc(Nc2ncc3c(=O)n(C)n(-c4cccc(OC5CCN(C)CC5)n4)c3n2)ccc1F` [Compound 152, 6-(4-fluoro-3-toluidino)-2-methyl-1-[6-(1-methyl-4-piperidyloxy)-2-pyridyl]-1,2-dihydro-3H-1,2,5,7-tetraazainden-3-one]: the IC50 in experiment [1] (setting [4]) is less than 10 nM; in experiment [3] (setting [6]), 20 to 100 nM. For the same compound, the EC50 in experiment [2] (setting [5]) fell in the range of 100 to 500 nM.
For `C=CCn1c(=O)c2cnc(Nc3ccc4c(cnn4CC(C)C)c3)nc2n1-c1cccc(OC2CCNCC2)n1` [Compound 356, 2-allyl-6-((1-isobutyl-1H-indazol-5-yl)amino)-1-(6-(piperidin-4-yloxy)pyridin-2-yl)-1,2-dihydro-3H-pyrazolo[3,4-d]pyrimidin-3-one] the same measures were less than 10 nM, less than 20 nM and less than 100 nM.
For `C=CCn1c(=O)c2cnc(Nc3cc(Cl)cc(Br)c3)nc2n1-c1cccc(NC2CCNCC2)n1` [Compound 144, 6-[(3-bromo-5-chlorophenyl)amino]-1-{6-[(piperidin-4-yl)amino]pyridin-2-yl}-2-(prop-2-en-1-yl)-1H,2H,3H-pyrazolo[3,4-d]pyrimidin-3-one], in that order: less than 10 nM, more than 500 nM and 500 to 1000 nM.
For `C=CCn1c(=O)c2cnc(Nc3ccc4nccn4c3)nc2n1-c1cccc(OC2CCNCC2)n1` [Compound 324, 6-(1,3a-diaza-5-indenylamino)-2-allyl-1-[6-(4-piperidyloxy)-2-pyridyl]-1,2-dihydro-3H-1,2,5,7-tetraazainden-3-one] the same measures were less than 10 nM, 20 to 100 nM and more than 1000 nM.
As for `C=CCn1c(=O)c2cnc(Nc3ccc4c(cnn4C)c3)nc2n1-c1cccc(N[C@H]2CCNC2)n1` [Compound 107, 1-{6-[(S)-3-pyrrolidinylamino]-2-pyridyl}-2-allyl-6-(1-methyl-1H-indazol-5-ylamino)-1,2-dihydro-3H-1,2,5,7-tetraazainden-3-one], the results for the IC50 in experiment [1] (setting [4]) and in experiment [3] (setting [6]) were less than 10 nM and 20 to 100 nM, respectively. For the same compound, in experiment [2] (setting [5]), the EC50 is more than 1000 nM.
For `C=CCn1c(=O)c2cnc(Nc3ccc(F)cc3)nc2n1-c1cccc(NC2CCNCC2)n1` [Compound 125, 6-[(4-fluorophenyl)amino]-1-{6-[(piperidin-4-yl)amino]pyridin-2-yl}-2-(prop-2-en-1-yl)-1H,2H,3H-pyrazolo[3,4-d]pyrimidin-3-one] the same measures were less than 10 nM, 100 to 500 nM and 500 to 1000 nM.
For the compound `C=CCn1c(=O)c2cnc(Nc3ccc(Cl)cc3)nc2n1-c1cccc(N(CCC)C2CCNCC2)n1` [Compound 147], the IC50 in experiment [1] was less than 10 nM; in experiment [3] (setting [8]), more than 500 nM. For the same compound, the half-maximal effective concentration (EC50) in experiment [2] (setting [7]) was more than 1000 nM.
For the compound `C=CCn1c(=O)c2cnc(Nc3ccc4c(cnn4C)c3)nc2n1-c1cccc(OC2CCNCC2)c1` [Compound 223, 2-allyl-6-(1-methyl-1H-indazol-5-ylamino)-1-[m-(4-piperidyloxy)phenyl]-1,2-dihydro-3H-1,2,5,7-tetraazainden-3-one], the concentration for half-maximal inhibition (IC50) was less than 10 nM in experiment [1] (setting [4]) and more than 500 nM in experiment [3] (setting [6]). In addition, the EC50 in experiment [2] (setting [5]) fell in the range of 100 to 500 nM.
For `C=CCn1c(=O)c2cnc(Nc3ccc(F)cc3)nc2n1-c1cccc(OC2CCCN(C)CC2)n1` (single isomer, unassigned) [Compound 372], in that order: less than 10 nM, 20 to 100 nM and less than 100 nM.
For `C=CCn1c(=O)c2cnc(Nc3ccc(N4CCOCC4)c(C)c3)nc2n1-c1cccc(OC2CCNCC2)n1` [Compound 262, 2-allyl-6-(4-morpholino-3-toluidino)-1-[6-(4-piperidyloxy)-2-pyridyl]-1,2-dihydro-3H-1,2,5,7-tetraazainden-3-one], the IC50 is less than 10 nM in experiment [1] (setting [4]) and 20 to 100 nM in experiment [3] (setting [6]). Further, in experiment [2] (setting [5]), the EC50 was less than 100 nM.
For `CCn1c(=O)c2cnc(Nc3ccc(-c4ccccc4)cc3)nc2n1-c1cccc(OC2CCNCC2)n1` [Compound 272, 6-(4-biphenylylamino)-2-ethyl-1-[6-(4-piperidyloxy)-2-pyridyl]-1,2-dihydro-3H-1,2,5,7-tetraazainden-3-one] the same measures were less than 10 nM, less than 20 nM and 100 to 500 nM.
For `C=CCn1c(=O)c2cnc(Nc3ccc4nccn4c3)nc2n1-c1cccc(OC2CCN(C)CC2)n1` [Compound 328, 6-(1,3a-diaza-5-indenylamino)-2-allyl-1-[6-(1-methyl-4-piperidyloxy)-2-pyridyl]-1,2-dihydro-3H-1,2,5,7-tetraazainden-3-one], in that order: less than 10 nM, 20 to 100 nM and 100 to 500 nM.
For `CCn1c(=O)c2cnc(Nc3ccc(-c4cnn(C)c4)cc3)nc2n1-c1cccc(OC2CCNCC2)n1` [Compound 271, 2-ethyl-6-[p-(1-methyl-4-pyrazolyl)phenylamino]-1-[6-(4-piperidyloxy)-2-pyridyl]-1,2-dihydro-3H-1,2,5,7-tetraazainden-3-one] the same measures were less than 10 nM, less than 20 nM and 100 to 500 nM.
